Assay results: patent US4221682A, “Tetrapeptides having analgesic activity” (American Home Products Corporation, priority 1979, dated 1980)
Like-named read-outs stand apart in the source and are kept apart here. Positions of bridges follow the written chain, without caps; N, C: chain ends. Non-standard residues stand in square brackets, D forms with d. Residues, ends and D or L forms follow the SMILES beside them. Chains are numbered I, II in the order given. NMeF = CN[C@@H](Cc1ccccc1)C(=O)O

Key:
male rats = assay: rat-tail flick test of D'Amour and Smith, intravenous administration; format: in vivo; conditions: for Positive Responses/Total Possible Response: all time points
Description: The holders are situated so that a high intensity light beam will shine on the tip of the rats tail. The light beam intensity is adjusted so that normal rats respond by removing their tails from the light stimulus within from 3 to 8 seconds. The average of three time readings for removal of a rats tail from the light beam, taken 20 minutes apart serves as a pre-drug control. The rats are selected for use based upon control readings that agree within one second. The compounds of this invention are then administered intravenously and the test performed at 15, 30 and 60 minutes to determine the animals reaction time which is compared with the control average and tested for significance. The number of rats showing analgesia at each time period out of the total group for each dose administered is noted as a ratio and the number of positive responses observed is relative to the total number of challenges for each group of rats.

mice = conditions: central administration (Baxter et al.); cited from earlier work
rats [1] = conditions: cited from earlier work; for analgesia: injection in the brain ventricle in rats, fully reversible by naloxone
[2] = cited from earlier work; for activity when administered peripherally: peripheral administration
[3] = central administration (Pert et al.); cited from earlier work
mouse vas deferens = conditions: cited from earlier work
guinea pig ileum = conditions: cited from earlier work
opiate receptor = conditions: brain homogenates; cited from earlier work
rats [4] = conditions: peripheral (i.v.), rats (Bajusz et al.); cited from earlier work

Compound: CN(C(=O)CNC(=O)[C@@H](CSSC[C@@H](NC(=O)[C@@H](N)Cc1ccc(O)cc1)C(=O)NCC(=O)N(C)[C@@H](Cc1ccccc1)C(N)=O)NC(=O)[C@@H](N)Cc1ccc(O)cc1)[C@@H](Cc1ccccc1)C(N)=O [Example 2, L-Tyrosyl-D-Cysteinyl-Glycyl-N-Methyl-L-Phenylalanyl Amide Disulfide Acetate] (I: H-Y[dC]G[NMeF]-NH2 / II: H-Y[dC]G[NMeF]-NH2; disulfide I:2-II:2)
- Respiration normal (number of rats) (male rats; 1.0 mg/kg i.v.): 5/5
- dead (number of rats) (male rats; 1.0 mg/kg i.v.): 1/6
- No. Analgesic/No. Tested (male rats; 1.0 mg/kg i.v., 15 minutes): 3/6
- No. Analgesic/No. Tested (male rats; 1.0 mg/kg i.v., 30 minutes): 2/6
- No. Analgesic/No. Tested (male rats; 1.0 mg/kg i.v., 60 minutes): 1/5
- Positive Responses/Total Possible Response (male rats; 1.0 mg/kg i.v.): 6/17
- Respiration very depressed (number of rats) (male rats; 5.0 mg/kg i.v.): 6/6
- dead (number of rats) (male rats; 5.0 mg/kg i.v.): 0/6
- No. Analgesic/No. Tested (male rats; 5.0 mg/kg i.v., 15 minutes): 6/6
- No. Analgesic/No. Tested (male rats; 5.0 mg/kg i.v., 30 minutes): 5/6
- No. Analgesic/No. Tested (male rats; 5.0 mg/kg i.v., 60 minutes): 5/6
- Positive Responses/Total Possible Response (male rats; 5.0 mg/kg i.v.): 16/18

Compound: H-Tyr-D-Ala-Gly-Phe-D-Leu-OH
- antinociceptive and behavioral effects (mice): exhibit antinociceptive and behavioral effects
- antinociceptive and behavioral effects (rats [1]; rats, central administration (Baxter et al.)): exhibit antinociceptive and behavioral effects
- peripheral analgesic activity ([2]; peripheral administration (Wei et al.; Romer et al.)): exhibit peripheral analgesic activity

Compound: H-Tyr-D-Ala-Gly-Phe-D-Met-NH2
- analgesic activity (rats [1]; rats, centrally administered (Fredrickson)): produced analgesic activity

Compound: H-Tyr-D-Ala-Gly-Phe-Met-NH2
- analgesia [3]: long lasting analgesic

Compound: H-Tyr-Gly-Gly-Phe-Leu-OH [leucine-enkephalin]
- block of electrically evoked contractions (mouse vas deferens): mimic the ability of morphine to block electrically evoked contractions
- analgesia (rats [1]): induce a profound analgesia
- block of electrically evoked contractions (guinea pig ileum): mimic the ability of morphine to block electrically evoked contractions
- activity when administered peripherally [2]: inactive
- inhibition of stereospecific receptor binding of 3H-naloxone (opiate receptor): inhibit the stereospecific receptor binding

Compound: H-Tyr-Gly-Gly-Phe-Met-OH [methionine-enkephalin]
- block of electrically evoked contractions (mouse vas deferens): mimic the ability of morphine to block electrically evoked contractions
- analgesia (rats [1]): induce a profound analgesia
- block of electrically evoked contractions (guinea pig ileum): mimic the ability of morphine to block electrically evoked contractions
- activity when administered peripherally [2]: inactive
- inhibition of stereospecific receptor binding of 3H-naloxone (opiate receptor): inhibit the stereospecific receptor binding

Compound: H-Y[dM]GFP-NH2
- analgesic activity (rats [4]): peripheral (i.v.) analgesic activity
